Structures can show the parent of a compound that is named as a salt.
Each compound was assayed against T1, SOS1 (Homo sapiens, UniProt Q07889) (assay: biochemical).
T1 sequence (Q07889 1-1333): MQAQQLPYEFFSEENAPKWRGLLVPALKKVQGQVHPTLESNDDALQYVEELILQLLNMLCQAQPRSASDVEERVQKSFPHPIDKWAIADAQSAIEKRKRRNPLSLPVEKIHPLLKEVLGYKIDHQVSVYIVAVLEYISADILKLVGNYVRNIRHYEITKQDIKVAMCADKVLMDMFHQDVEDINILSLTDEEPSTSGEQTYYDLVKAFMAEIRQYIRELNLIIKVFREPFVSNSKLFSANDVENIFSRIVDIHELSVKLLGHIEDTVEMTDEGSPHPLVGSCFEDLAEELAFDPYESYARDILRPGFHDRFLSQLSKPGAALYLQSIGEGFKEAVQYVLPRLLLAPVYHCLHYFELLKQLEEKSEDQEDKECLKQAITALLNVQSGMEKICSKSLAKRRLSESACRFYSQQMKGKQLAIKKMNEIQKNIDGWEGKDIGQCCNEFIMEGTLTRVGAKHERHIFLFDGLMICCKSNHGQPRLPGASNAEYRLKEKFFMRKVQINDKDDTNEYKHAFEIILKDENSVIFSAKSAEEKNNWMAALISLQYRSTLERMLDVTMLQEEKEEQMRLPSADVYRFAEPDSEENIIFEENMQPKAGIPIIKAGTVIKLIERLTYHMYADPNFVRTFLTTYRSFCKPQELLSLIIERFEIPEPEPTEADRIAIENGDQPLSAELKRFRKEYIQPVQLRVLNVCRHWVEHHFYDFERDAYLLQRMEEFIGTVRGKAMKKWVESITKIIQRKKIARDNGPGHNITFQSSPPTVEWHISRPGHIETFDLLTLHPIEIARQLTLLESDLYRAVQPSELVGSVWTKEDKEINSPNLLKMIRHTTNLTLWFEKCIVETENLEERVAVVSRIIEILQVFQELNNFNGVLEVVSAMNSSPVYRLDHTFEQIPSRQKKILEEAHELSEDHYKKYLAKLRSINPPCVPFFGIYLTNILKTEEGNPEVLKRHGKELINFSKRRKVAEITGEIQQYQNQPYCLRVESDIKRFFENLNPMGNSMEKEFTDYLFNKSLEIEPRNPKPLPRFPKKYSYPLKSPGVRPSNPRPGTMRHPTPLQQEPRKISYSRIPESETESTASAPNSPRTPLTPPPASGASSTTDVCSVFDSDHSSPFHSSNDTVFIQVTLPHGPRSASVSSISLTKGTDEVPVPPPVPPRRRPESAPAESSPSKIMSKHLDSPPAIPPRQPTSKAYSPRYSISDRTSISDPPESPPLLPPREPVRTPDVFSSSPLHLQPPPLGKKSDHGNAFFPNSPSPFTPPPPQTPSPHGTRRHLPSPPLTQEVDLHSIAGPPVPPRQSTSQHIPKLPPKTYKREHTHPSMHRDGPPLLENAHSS
C[C@@H](Nc1nnc(N2CCN(C3CC3)CC2)c2cc(=O)n(N3CC4CCCC4C3)cc12)c1cccc(C(F)F)c1F (stereo partly drawn) [Example 142, 4-(((R)-1-(3-(difluoromethyl)-2-fluorophenyl)ethyl)amino)-6-(hexahydrocyclopenta[c]pyrrol-2(1H)-yl)-1-(4-cyclopropylpiperazin-1-yl)-pyrido[3,4-d]pyridazin-7(6H)-one] was tested, and the IC50 was 10.6 nM.
Cc1c(C#N)cccc1[C@@H](C)Nc1nnc(N2CCN(C3CC3)CC2)c2cc(=O)n(C3CC3)cc12 [Example 99, (R)-3-(1-((6-cyclopropyl-1-(4-cyclopropylpiperazin-1-yl)-7-oxo-6,7-dihydropyrido[3,4-d]pyridazin-4-yl)amino)ethyl)-2-methylbenzonitrile] showed an IC50 of 11.3 nM.
C[C@@H](Nc1nnc(N2CC3C(C2)C3(C)C)c2cc(=O)n(C3(C)CC3)cc12)c1cccc(C(F)F)c1F (stereo partly drawn) [Example 189, 4-(((R)-1-(3-(difluoromethyl)-2-fluorophenyl)ethyl)amino)-1-(6,6-dimethyl-3-azabicyclo[3.1.0]hexan-3-yl)-6-(1-methylcyclopropyl) pyrido[3,4-d]pyridazin-7(6H)-one] gave an IC50 of 4.3 nM.
Work on CCn1cc2c(N[C@H](C)c3cccc(C(F)F)c3F)nnc(N3CCN(C(C)C)CC3)c2cc1=O [Example 118, (R)-4-((1-(3-(difluoromethyl)-2-fluorophenyl)ethyl)amino)-6-ethyl-1-(4-isopropylpiperazin-1-yl)pyrido[3,4-d]pyridazin-7(6H)-one] yielded an IC50 of 8.4 nM.
Work on Cc1c([C@@H](C)Nc2nnc(N(C)C)c3cc(=O)n(C4CC4)cc23)cccc1C(F)(F)F [Example 51, (R)-6-cyclopropyl-1-(dimethylamino)-4-((1-(2-methyl-3-(trifluoromethyl)phenyl)ethyl)amino)pyr ido[3,4-d]pyridazin-7(6H)-one] yielded an IC50 of 11.8 nM.
C[C@@H](Nc1nnc(N2CC[C@H](CO)C2)c2cc(=O)n(C3(C)CC3)cc12)c1cccc(C(F)(F)F)c1 [Example 179, 1-((S)-3-(hydroxymethyl)pyrrolidin-1-yl)-6-(1-methylcyclopropyl)-4-(((R)-1-(3-(trifluoromethyl)phenyl)ethyl)amino)pyr ido[3,4-d]pyridazin-7(6H)-one formate] showed an IC50 of 6.4 nM.
For Cc1cc(N)cc([C@@H](C)Nc2nnc(N3CCN(C4CC4)CC3)c3cc(=O)n(C4CC4)cc23)c1F [Example 143, (R)-4-((1-(5-amino-2-fluoro-3-methylphenyl)ethyl)amino)-6-cyclopropyl-1-(4-cyclopropylpiperazin-1-yl)pyrido[3,4-d]pyridazin-7(6H)-one], the IC50 was 11.5 nM.
In the case of Cc1c([C@@H](C)Nc2nnc(N3CCC(F)(F)C3)c3cc(=O)n(C4(C)CC4)cc23)cccc1C(F)(F)F [Example 67, (R)-1-(3,3-difluoropyrrolidin-1-yl)-4-((1-(2-methyl-3-(trifluoromethyl)phenyl)ethyl)amino)-6-(1-methylcyclopropyl) pyrido[3,4-d]pyridazin-7(6H)-one], the IC50 is reported as 29 nM.
C[C@@H](Nc1nnc(-n2cncn2)c2cc(=O)n(C3CC3)cc12)c1cccc(C(F)F)c1F [Example 1, (R)-6-cyclopropyl-4-((1-(3-(difluoromethyl)-2-fluorophenyl)ethyl)amino)-1-(1H-1,2,4-triazol-1-yl) pyrido[3,4-d]pyridazin-7(6H)-one] was tested, and the IC50 was 13.5 nM.
For CNc1nnc(N[C@H](C)c2cccc(C#N)c2C)c2cn(C3(C)CC3)c(=O)cc12 [Example 83, (R)-2-methyl-3-(1-((1-(methylamino)-6-(1-methylcyclopropyl)-7-oxo-6,7-dihydropyrido[3,4-d]pyridazin-4-yl)amino)ethyl)benzonitrile], the IC50 was 5.6 nM.
For Cc1c([C@@H](C)Nc2nnc(N3CCN(C)CC3)c3cc(=O)n(C4CC4)cc23)cccc1C(F)(F)F [Example 86, (R)-6-cyclopropyl-4-((1-(2-methyl-3-(trifluoromethyl)phenyl)ethyl)amino)-1-(4-methylpiperazin-1-yl)pyrido[3,4-d]pyridazin-7(6H)-one], the IC50 was 3.6 nM.
Cc1c([C@@H](C)Nc2nnc(N(C)C)c3cc(=O)n(C4(C)CC4)cc23)cccc1C(F)(F)F [Example 64, (R)-1-(dimethylamino)-4-((1-(2-methyl-3-(trifluoromethyl)phenyl)ethyl)amino)-6-(1-methylcyclopropyl) pyrido[3,4-d]pyridazin-7(6H)-one] showed an IC50 of 10.7 nM.
For Cc1cc(N)cc([C@@H](C)Nc2nnc(N3CCN(C(C)C)CC3)c3cc(=O)n(C4(C)CC4)cc23)c1F [Example 161, (R)-4-((1-(5-amino-2-fluoro-3-methylphenyl)ethyl)amino)-1-(4-isopropylpiperazin-1-yl)-6-(1-methylcyclopropyl) pyrido[3,4-d]pyridazin-7(6H)-one], the IC50 was 5.2 nM.
Compound Cc1c([C@@H](C)Nc2nnc(N3CCS(=O)(=O)CC3)c3cc(=O)n(C4(C)CC4)cc23)cccc1C(F)(F)F [Example 68, (R)-1-(1,1-dioxidothiomorpholino)-4-((1-(2-methyl-3-(trifluoromethyl)phenyl)ethyl)amino)-6-(1-methylcyclopropyl) pyrido[3,4-d]pyridazin-7(6H)-one] has an IC50 of 18.9 nM.
Work on Cc1c(C#N)cccc1[C@@H](C)Nc1nnc(N2CCN(C3CCCC3)CC2)c2cc(=O)n(C3CC3)cc12 [Example 101, (R)-3-(1-((1-(4-cyclopentylpiperazin-1-yl)-6-cyclopropyl-7-oxo-6,7-dihydropyrido[3,4-d]pyridazin-4-yl)amino)ethyl)-2-methylbenzonitrile] yielded an IC50 of 8.9 nM.
CCN(CC)c1nnc(N[C@H](C)c2cccc(C#N)c2C)c2cn(C3CC3)c(=O)cc12 [Example 40, (R)-3-(1-((6-cyclopropyl-1-(diethylamino)-7-oxo-6,7-dihydropyrido[3,4-d]pyridazin-4-yl)amino)ethyl)-2-methylbenzonitrile] was tested, and the IC50 was 32.5 nM.
CCN(CC)c1nnc(N[C@H](C)c2cccc(C(F)F)c2F)c2cn(C3CC3)c(=O)cc12 [Example 17, (R)-6-cyclopropyl-1-(diethylamino)-4-((1-(3-(difluoromethyl)-2-fluorophenyl)ethyl)amino)pyrido[3,4-d]pyridazin-7(6H)-one] showed an IC50 of 11.2 nM.
For Cc1c(C#N)cccc1[C@@H](C)Nc1nnc(N2CCN(C)CC2)c2cc(=O)n(C3CC3)cc12 [Example 87, (R)-3-(1-((6-cyclopropyl-1-(4-methylpiperazin-1-yl)-7-oxo-6,7-dihydropyrido[3,4-d]pyridazin-4-yl)amino)ethyl)-2-methylbenzonitrile], the IC50 was 5.7 nM.
C[C@@H](Nc1nnc(N2CCN(CC3CC3)CC2)c2cc(=O)n(N3CCN(C)CC3)cc12)c1cccc(C(F)F)c1F [Example 154, (R)-1-(4-(cyclopropylmethyl)piperazin-1-yl)-4-((1-(3-(difluoromethyl)-2-fluorophenyl)ethyl)amino)-6-(4-methylpiperazin-1-yl)pyrido[3,4-d]pyridazin-7(6H)-one] gave an IC50 of 5.4 nM.
For Cc1c(C#N)cccc1[C@@H](C)Nc1nnc(N2CCC(F)(F)CC2)c2cc(=O)n(C3CC3)cc12 [Example 43, (R)-3-(1-((6-cyclopropyl-1-(4,4-difluoropiperidin-1-yl)-7-oxo-6,7-dihydropyrido[3,4-d]pyridazin-4-yl)amino)ethyl)-2-methylbenzonitrile], the IC50 was 84.2 nM.
C[C@@H](Nc1nnc(N2CCN(C)CC2)c2cc(=O)n(N3CC4CCCC4C3)cc12)c1cccc(C(F)F)c1F (stereo partly drawn) [Example 136, 4-(((R)-1-(3-(difluoromethyl)-2-fluorophenyl)ethyl)amino)-6-(hexahydrocyclopenta[c]pyrrol-2(1H)-yl)-1-(4-methylpiperazin-1-yl)pyrido[3,4-d]pyridazin-7(6H)-one formate] gave an IC50 of 6.2 nM.
Cc1c([C@@H](C)Nc2nnc(N3CCN(CC4CC4)CC3)c3cc(=O)n(C4(C)CC4)cc23)cccc1C(F)(F)F [Example 93, (R)-1-(4-(cyclopropylmethyl)piperazin-1-yl)-4-((1-(2-methyl-3-(trifluoromethyl)phenyl)ethyl)amino)-6-(1-methylcyclopropyl) pyrido[3,4-d]pyridazin-7(6H)-one] gave an IC50 of 5.4 nM.
C[C@@H](Nc1nnc(N2CCN(C3CC3)CC2)c2cc(=O)n(C3CC(F)(F)C3)cc12)c1cccc(C(F)F)c1F [Example 103, (R)-6-(3,3-difluorocyclobutyl)-4-((1-(3-(difluoromethyl)-2-fluorophenyl)ethyl)amino)-1-(4-cyclopropylpiperazin-1-yl)pyrido[3,4-d]pyridazin-7(6H)-one] gave an IC50 of 5.9 nM.

— EP4722213A1, “NITROGEN-CONTAINING FUNCTIONAL GROUP-SUBSTITUTED PYRIDAZINOPYRIDONE DERIVATIVE AND USE THEREOF” (Sichuan Huiyu Pharmaceutical Co., Ltd., priority 2023, dated 2024)
